Test results taken from patent publication US20170008888A1 (KYORIN PHARMACEUTICAL CO., LTD., priority 2014, published 2017).

Legend:
Assay type in all cases: binding
AurB or AurC = assay: Probe-based (AX9989) kinase profiling in Jurkat lysate: AurB or AurC
Method in brief: (§1)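 Read-out: LC/MS intensity of desthiobiotinylated kinase active-site peptides, percent inhibition normalized to no-compound lysate. Jurkat lysate with 20 mM MnCl2 received compound for 15 min at room temperature, then 5 μM AX9989 probe; duplicates.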

TAO2 = molecular target: T1, TAO2 (Homo sapiens, UniProt Q9UL54); assay: Probe-based (AX9989) kinase profiling in Jurkat lysate: TAO2; settings: read-out: Kinase inhibition % at indicated screening concentration: TAO2; for inhibition at 1 µM: screening concentration 1.0 μM
T1 construct: screened for activity against several kinases in Jurkat cells; endogenous in cells; host or cells: Jurkat cell lysate
T1 sequence (Q9UL54 1-1235): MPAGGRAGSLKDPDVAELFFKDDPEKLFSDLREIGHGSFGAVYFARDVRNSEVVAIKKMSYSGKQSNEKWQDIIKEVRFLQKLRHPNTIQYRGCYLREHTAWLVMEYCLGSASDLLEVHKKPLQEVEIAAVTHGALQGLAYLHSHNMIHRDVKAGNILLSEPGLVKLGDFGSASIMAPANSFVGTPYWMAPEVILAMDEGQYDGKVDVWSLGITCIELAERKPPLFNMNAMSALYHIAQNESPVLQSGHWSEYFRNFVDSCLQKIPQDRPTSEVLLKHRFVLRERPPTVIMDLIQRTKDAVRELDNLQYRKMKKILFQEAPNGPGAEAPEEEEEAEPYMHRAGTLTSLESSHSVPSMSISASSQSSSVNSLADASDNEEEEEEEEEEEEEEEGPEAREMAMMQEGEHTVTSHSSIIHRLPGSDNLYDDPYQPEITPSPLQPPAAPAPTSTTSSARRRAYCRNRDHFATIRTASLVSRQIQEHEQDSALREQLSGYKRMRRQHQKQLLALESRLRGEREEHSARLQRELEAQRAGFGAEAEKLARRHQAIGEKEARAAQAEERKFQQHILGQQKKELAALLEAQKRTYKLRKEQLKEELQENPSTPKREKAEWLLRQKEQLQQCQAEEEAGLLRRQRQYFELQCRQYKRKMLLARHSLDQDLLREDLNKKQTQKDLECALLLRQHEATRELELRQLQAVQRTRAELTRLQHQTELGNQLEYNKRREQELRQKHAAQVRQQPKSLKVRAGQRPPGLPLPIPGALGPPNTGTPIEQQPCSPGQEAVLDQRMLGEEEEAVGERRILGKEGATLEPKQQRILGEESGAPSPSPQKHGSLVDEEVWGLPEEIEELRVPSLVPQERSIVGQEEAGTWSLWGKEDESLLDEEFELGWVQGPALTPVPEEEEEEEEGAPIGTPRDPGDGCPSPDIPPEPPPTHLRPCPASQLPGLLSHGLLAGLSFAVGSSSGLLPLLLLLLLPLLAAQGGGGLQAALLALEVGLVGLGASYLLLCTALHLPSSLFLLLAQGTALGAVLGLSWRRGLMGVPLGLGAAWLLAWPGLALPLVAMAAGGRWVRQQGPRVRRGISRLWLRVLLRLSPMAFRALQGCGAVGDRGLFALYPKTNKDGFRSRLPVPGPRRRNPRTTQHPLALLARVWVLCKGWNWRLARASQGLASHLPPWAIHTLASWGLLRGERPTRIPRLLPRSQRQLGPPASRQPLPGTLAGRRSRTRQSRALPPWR
Method in brief: as §1

JAK1 = molecular target: T2, JAK1 (Homo sapiens, UniProt P23458); assay: Probe-based (AX9989) kinase profiling in Jurkat lysate: JAK1; settings: read-out: Kinase inhibition % at indicated screening concentration: JAK1; for inhibition at 1 µM: screening concentration 1.0 μM
T2 construct: screened for activity against several kinases in Jurkat cells; endogenous in cells; host or cells: Jurkat cell lysate
Method in brief: as §1

ABL or ARG = assay: Probe-based (AX9989) kinase profiling in Jurkat lysate: ABL or ARG
Method in brief: as §1

AurA = molecular target: T3, AurA (Homo sapiens, UniProt O14965); assay: Probe-based (AX9989) kinase profiling in Jurkat lysate: AurA; settings: read-out: Kinase inhibition % at indicated screening concentration: AurA; for inhibition at 1 µM: screening concentration 1.0 μM
T3 construct: screened for activity against several kinases in Jurkat cells; endogenous in cells; host or cells: Jurkat cell lysate
T3 sequence (O14965 1-403): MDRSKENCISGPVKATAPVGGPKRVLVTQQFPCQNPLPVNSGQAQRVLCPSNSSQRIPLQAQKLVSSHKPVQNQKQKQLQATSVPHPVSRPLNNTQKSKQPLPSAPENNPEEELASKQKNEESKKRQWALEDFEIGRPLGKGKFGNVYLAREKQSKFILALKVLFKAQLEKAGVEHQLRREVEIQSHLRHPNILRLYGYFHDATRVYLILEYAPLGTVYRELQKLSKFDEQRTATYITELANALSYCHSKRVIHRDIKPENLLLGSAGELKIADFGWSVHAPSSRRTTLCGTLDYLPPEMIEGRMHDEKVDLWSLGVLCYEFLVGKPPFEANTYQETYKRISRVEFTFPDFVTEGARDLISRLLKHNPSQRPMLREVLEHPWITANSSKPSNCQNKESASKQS
Method in brief: as §1

[1] = molecular target: T4, BRD4 bromodomain domain I [BRD4(1)] (Homo sapiens, UniProt O60885); assay: BRD4 bromodomain domain 1 inhibition assay (TR-FRET); settings: screening concentration 10 μM
T4 construct: BRD4 bromodomain domain I [BRD4(1)]; purchased Cayman Chemicals
Experimental: The inhibitory activity of test compounds on the bromodomain, BRD4 bromodomain domain I [BRD4(1)], were determined via TR-FRET after a slight modification of the manufacturer's protocol (Cayman Chemicals, Ann Arbor, Mich.). Briefly, compounds were diluted to a 20× ([…]) concentration in DMSO. 100 nL of 20× compounds were then dry stamped into triplicate wells of black, low volume 384 well plates (Aurora Biotechnologies, Carlsbad, Calif.) using the Mosquito liquid handler (TPP Labtech, Melbourn, UK). 20× compounds were then diluted to a 4× (40 μM) concentration in Assay Buffer to result in 2% DMSO content. […] JQ1 at 10 μM or 0.5% DMSO final concentrations were used as the positive and negative controls, respectively, to set the assay window. The fluorescence was read in a time-resolved format on the Biotec Synergy 2 plate reader by exciting the signal at 340 nm and reading emissions at 620 and 670, using a 100 μs delay and 200 μs read window. […] Briefly, TR-FRET ratio values were normalized to the average TR-FRET ratio value given by 10 μM JQ1. […]

ACK = molecular target: T5, ACK (Homo sapiens, UniProt Q07912); assay: Probe-based (AX9989) kinase profiling in Jurkat lysate: ACK; settings: read-out: Kinase inhibition % at indicated screening concentration: ACK; for inhibition at 1 µM: screening concentration 1.0 μM
T5 construct: screened for activity against several kinases in Jurkat cells; endogenous in cells; host or cells: Jurkat cell lysate
Method in brief: as §1

AMPKa1 or AMPKa2 = assay: Probe-based (AX9989) kinase profiling in Jurkat lysate: AMPKa1 or AMPKa2
Method in brief: as §1

ERK5 = molecular target: T6, ERK5 (Homo sapiens, UniProt Q13164); assay: Probe-based (AX9989 acyl phosphate ATP probe) kinase profiling in Jurkat lysate: ERK5; settings: for IC50: calculated from percent inhibition of AX9989 labeling and the screening concentration, Jurkat lysate; for inhibition at 1 µM: screening concentration 1.0 μM
T6 construct: screened for activity against several kinases in Jurkat cells; endogenous in cells; host or cells: Jurkat cell lysate
Method in brief: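 ERK5 IC50 values came from percent inhibition at the screening concentration, measured as loss of LC/MS signal of probe-labelled active-site peptides. Compound was added for 15 min at room temperature to Jurkat lysate (5 mg/ml, 20 mM MnCl2) before labelling with AX9989 ATP acyl phosphate probe at 5 μM.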

[2] = read-out: Kinase inhibition % at indicated screening concentration: ERK5

T5 sequence (Q07912 whole entry): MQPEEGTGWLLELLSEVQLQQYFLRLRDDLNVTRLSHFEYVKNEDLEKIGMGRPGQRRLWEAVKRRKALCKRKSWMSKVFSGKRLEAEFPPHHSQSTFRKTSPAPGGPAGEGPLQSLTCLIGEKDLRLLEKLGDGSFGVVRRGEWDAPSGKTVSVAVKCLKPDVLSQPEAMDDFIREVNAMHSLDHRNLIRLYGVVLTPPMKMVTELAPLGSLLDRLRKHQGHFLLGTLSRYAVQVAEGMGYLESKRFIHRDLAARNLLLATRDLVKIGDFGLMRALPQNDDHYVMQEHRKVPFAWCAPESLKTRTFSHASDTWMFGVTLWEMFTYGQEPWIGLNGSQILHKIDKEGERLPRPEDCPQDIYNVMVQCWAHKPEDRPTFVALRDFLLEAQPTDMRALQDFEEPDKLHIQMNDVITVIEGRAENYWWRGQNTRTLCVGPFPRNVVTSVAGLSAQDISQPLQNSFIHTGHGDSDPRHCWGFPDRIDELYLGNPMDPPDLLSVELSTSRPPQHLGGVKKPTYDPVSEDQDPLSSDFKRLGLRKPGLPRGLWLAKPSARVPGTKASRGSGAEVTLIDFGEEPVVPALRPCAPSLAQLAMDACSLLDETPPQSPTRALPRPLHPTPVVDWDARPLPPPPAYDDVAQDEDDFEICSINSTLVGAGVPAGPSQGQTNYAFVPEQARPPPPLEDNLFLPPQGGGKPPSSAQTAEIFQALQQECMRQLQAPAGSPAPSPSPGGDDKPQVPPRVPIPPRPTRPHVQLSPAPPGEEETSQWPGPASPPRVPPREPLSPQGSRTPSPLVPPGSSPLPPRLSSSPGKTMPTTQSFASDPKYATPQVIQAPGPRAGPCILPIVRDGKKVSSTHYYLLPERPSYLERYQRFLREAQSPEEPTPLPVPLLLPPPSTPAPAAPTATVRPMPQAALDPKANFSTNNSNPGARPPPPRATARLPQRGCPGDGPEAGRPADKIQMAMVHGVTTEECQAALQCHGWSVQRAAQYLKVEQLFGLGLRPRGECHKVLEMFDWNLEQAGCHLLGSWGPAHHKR
T6 sequence (Q13164 whole entry): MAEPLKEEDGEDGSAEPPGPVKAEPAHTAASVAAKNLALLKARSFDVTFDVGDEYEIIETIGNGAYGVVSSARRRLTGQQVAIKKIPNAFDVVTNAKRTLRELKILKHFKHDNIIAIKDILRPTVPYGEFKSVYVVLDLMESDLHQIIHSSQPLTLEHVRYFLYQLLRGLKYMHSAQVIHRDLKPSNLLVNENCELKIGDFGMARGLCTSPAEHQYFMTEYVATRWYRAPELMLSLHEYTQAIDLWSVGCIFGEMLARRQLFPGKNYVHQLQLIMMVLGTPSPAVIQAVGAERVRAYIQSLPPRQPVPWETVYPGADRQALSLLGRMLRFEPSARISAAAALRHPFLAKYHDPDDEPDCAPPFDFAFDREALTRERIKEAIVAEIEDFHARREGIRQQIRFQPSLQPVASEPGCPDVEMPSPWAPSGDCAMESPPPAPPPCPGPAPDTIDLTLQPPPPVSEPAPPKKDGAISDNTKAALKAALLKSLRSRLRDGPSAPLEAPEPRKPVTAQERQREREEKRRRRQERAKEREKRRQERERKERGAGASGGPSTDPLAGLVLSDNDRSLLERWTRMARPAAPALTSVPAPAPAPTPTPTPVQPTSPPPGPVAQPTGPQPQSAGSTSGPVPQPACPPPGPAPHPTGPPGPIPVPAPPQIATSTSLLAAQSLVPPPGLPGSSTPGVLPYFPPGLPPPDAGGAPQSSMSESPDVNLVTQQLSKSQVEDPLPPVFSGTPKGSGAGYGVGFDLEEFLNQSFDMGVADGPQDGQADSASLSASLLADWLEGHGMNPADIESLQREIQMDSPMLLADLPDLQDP
T2 sequence (P23458 whole entry): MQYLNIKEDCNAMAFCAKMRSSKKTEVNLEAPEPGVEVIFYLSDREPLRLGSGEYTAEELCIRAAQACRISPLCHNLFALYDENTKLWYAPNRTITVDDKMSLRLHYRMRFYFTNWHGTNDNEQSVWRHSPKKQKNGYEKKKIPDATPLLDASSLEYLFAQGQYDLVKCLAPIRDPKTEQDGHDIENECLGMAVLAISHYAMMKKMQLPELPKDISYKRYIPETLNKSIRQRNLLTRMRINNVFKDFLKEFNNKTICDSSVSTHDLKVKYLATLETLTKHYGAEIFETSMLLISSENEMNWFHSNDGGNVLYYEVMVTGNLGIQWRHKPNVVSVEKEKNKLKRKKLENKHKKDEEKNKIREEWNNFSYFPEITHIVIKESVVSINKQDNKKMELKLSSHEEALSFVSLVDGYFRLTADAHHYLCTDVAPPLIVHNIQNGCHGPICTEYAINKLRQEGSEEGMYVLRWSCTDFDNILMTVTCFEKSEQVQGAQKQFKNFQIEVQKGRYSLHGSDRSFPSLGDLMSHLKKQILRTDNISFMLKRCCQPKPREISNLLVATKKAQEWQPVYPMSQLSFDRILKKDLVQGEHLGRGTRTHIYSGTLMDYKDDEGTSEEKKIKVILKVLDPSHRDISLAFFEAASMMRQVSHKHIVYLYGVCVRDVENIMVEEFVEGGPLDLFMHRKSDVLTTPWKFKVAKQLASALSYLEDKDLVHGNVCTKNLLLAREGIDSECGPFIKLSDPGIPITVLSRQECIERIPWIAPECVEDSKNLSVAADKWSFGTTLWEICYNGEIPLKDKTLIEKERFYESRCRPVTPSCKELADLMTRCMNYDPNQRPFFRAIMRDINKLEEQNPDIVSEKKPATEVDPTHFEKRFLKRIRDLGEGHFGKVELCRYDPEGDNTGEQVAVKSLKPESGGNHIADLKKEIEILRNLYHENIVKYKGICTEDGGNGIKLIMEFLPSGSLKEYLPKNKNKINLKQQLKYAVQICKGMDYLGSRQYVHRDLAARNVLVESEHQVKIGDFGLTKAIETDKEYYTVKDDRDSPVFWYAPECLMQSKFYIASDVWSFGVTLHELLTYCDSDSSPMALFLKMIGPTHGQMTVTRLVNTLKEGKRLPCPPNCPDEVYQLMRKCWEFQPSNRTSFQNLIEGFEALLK

Row | SMILES | Kinase inhibition % at indicated screening concentration: AurB or AurC (AurB or AurC; screening concentration 1.0 μM) | inhibition at 1 µM (TAO2) [%] | inhibition at 1 µM (JAK1) [%] | Kinase inhibition % at indicated screening concentration: ABL or ARG (ABL or ARG; screening concentration 1.0 μM) | inhibition at 1 µM (AurA) [%] | inhibition at 10 µM [1] [%] | inhibition at 1 µM (ACK) [%] | Kinase inhibition % at indicated screening concentration: AMPKa1 or AMPKa2 (AMPKa1 or AMPKa2; screening concentration 1.0 μM) | IC50 (ERK5) [nM] | inhibition at 1 µM (ERK5; [2]) [%] | Kinase inhibition % at indicated screening concentration: AurB or AurC (AurB or AurC; screening concentration 0.1 μM) | inhibition at 0.1 µM (TAO2; screening concentration 0.1 μM) [%] | inhibition at 0.1 µM (JAK1; screening concentration 0.1 μM) [%] | Kinase inhibition % at indicated screening concentration: ABL or ARG (ABL or ARG; screening concentration 0.1 μM) | inhibition at 0.1 µM (AurA; screening concentration 0.1 μM) [%] | inhibition at 0.1 µM (ACK; screening concentration 0.1 μM) [%] | Kinase inhibition % at indicated screening concentration: AMPKa1 or AMPKa2 (AMPKa1 or AMPKa2; screening concentration 0.1 μM) | inhibition at 0.1 µM (ERK5; screening concentration 0.1 μM, read-out: Kinase inhibition % at indicated screening concentration: ERK5) [%]
1 | CCN(CC)CCNC(=O)c1cccc(Nc2cc3c(cn2)N(C)C(=O)c2ccccc2N3C)c1OC [Compound 29] | E (E is ≦35%) | ≤ 35 | ≤ 35 | E (E is ≦35%) | ≤ 35 | < 70 | ≤ 35 | E (E is ≦35%) | 101 to 500 | 50 to 75 |  |  |  |  |  |  |  | 
2 | CN1C(=O)c2ccccc2N(C)c2cc(N[C@H]3CC[C@H](O)CC3)ncc21 [Compound 33, 3-((1r,4r)-4-hydroxycyclohexylamino)-5,11-dimethyl-5H-benzo[e]pyrido[3,4-b][1,4]diazepin-10(11H)-one] | E (E is ≦35%) | ≤ 35 | ≤ 35 | E (E is ≦35%) | ≤ 35 | < 70 | ≤ 35 | E (E is ≦35%) | 101 to 500 | 75 to 90 |  |  |  |  |  |  |  | 
3 | CN1C(=O)c2ccccc2N(C)c2cc(N[C@H]3CC[C@H](Nc4ncccn4)CC3)ncc21 [Compound 47] | E (E is ≦35%) | ≤ 35 | ≤ 35 | E (E is ≦35%) | ≤ 35 | < 70 | ≤ 35 | E (E is ≦35%) | > 500 | 35 to 50 |  |  |  |  |  |  |  | 
4 | CCOc1cc(C(=O)NC(CO)CO)ccc1Nc1cc2c(cn1)N(C)C(=O)c1ccccc1N2C [Compound 48] | E (E is ≦35%) | ≤ 35 | ≤ 35 | E (E is ≦35%) | ≤ 35 | < 70 | ≤ 35 | E (E is ≦35%) | 101 to 500 | 50 to 75 |  |  |  |  |  |  |  | 
5 | COc1c(Nc2cc3c(cn2)N(C)C(=O)c2ccccc2N3C)cccc1C(=O)N1CCNCC1 [Compound 78] | E (E is ≦35%) | ≤ 35 | ≤ 35 | E (E is ≦35%) | ≤ 35 | 70 to 85 | ≤ 35 | E (E is ≦35%) | > 500 | 50 to 75 |  |  |  |  |  |  |  | 
6 | CN1C(=O)c2ccccc2N(C)c2cc(NC3CCC(N)CC3)ncc21 (stereo not shown) [Compound 79] | E (E is ≦35%) | ≤ 35 | ≤ 35 | E (E is ≦35%) | ≤ 35 | < 70 | ≤ 35 | E (E is ≦35%) | 101 to 500 | 75 to 90 |  |  |  |  |  |  |  | 
7 | COc1cc(C(=O)N2CCC(N(C)C)C2)c(F)cc1Nc1cc2c(cn1)N(C)C(=O)c1ccccc1N2C (stereo not shown) [Compound 90] |  |  |  |  |  | < 70 |  |  | 101 to 500 |  | E (E is ≦35%) | ≤ 35 | ≤ 35 | E (E is ≦35%) | ≤ 35 | ≤ 35 | E (E is ≦35%) | ≤ 35
